Bridge positions count the residues as written; N and C are the ends. Square brackets hold non-standard residues; d marks the D form. Peptide text beside a SMILES is read from it. βAla = NCCC(=O)O
Legend:
CK2α catalytic subunit = target: T1, CK2α catalytic subunit (Homo sapiens, UniProt P68400); test: In vivo pull-down followed by immunodetection; assay type: binding; conditions: AML cells, immunoblot
T1 construct: endogenous in cells
Method: For in vivo pull-down assays, CIGB-300 with N-terminal biotin tag (CIGB-300-B) was added to AML cells at a final concentration of 40 µM and incubated for 30 min. Subsequently, cells were collected, washed, and lysed in hypotonic PBS solution (0.1×) containing 1 mM DTT (Sigma, St. Louis, MO, USA) and complete protease inhibitor (Roche, Basel, Switzerland) by eight freeze–thaw (liquid nitrogen/37 °C) cycles. Cellular lysates were cleared by centrifugation, and 300 µg of total protein was added to 30 µL of pre-equilibrated streptavidin–sepharose matrix (GE Healthcare, Chicago, IL, USA). Following 1 h at 4 °C, the matrix was collected by centrifugation and extensively washed with PBS solution (1×) containing 1 mM DTT. Proteins bound to streptavidin–sepharose matrix were digested with trypsin (Promega, Madison, WI, USA) during 16 h or eluted for western blot analysis. In parallel, untreated cells were subjected to the same experimental procedure to identify those proteins non-specifically bound to streptavidin–sepharose matrix.
Cells were lysed in RIPA buffer containing protease/phosphatase inhibitor (Thermo Fisher Scientific, Waltham, MA, USA), and equal amounts of protein were resolved in 12.5% SDS-PAGE [46]. […]

NPM1 S125 = test: Western blot of CK2-mediated NPM1 phosphorylation; assay type: cell-based, Human; conditions: both AML cell lines (HL-60, OCI-AML3), 40 µM
Method: Cells were lysed in RIPA buffer containing protease/phosphatase inhibitor (Thermo Fisher Scientific, Waltham, MA, USA), and equal amounts of protein were resolved in 12.5% SDS-PAGE [46]. Next, proteins were transferred to a nitrocellulose membrane and immunoblotted with the following antibodies according to instructions from the manufacturer: NPM1, p-NPM1 (S125), and CK2α (Abcam, Cambridge, United Kingdom) and β-actin (Sigma, St. Louis, MO, USA). Detection was performed with peroxidase-conjugated anti-mouse or anti-rabbit IgG (Sigma, St. Louis, MO, USA), and signal was developed using SuperSignal West Pico Chemiluminescent Substrate (Thermo Fisher Scientific, Waltham, MA, USA).
Figure S2. CIGB-300 peptide impairs CK2-mediated phosphorylation of NPM1 in AML cells. Cells treated with
40 µM of CIGB-300 during the indicated times were analyzed by western blot using phospho-specific and total […]

[1] = tested on: HL-60 cells transduced with LV-pLG or LV-shRNA; test: PI staining cytotoxicity in NPM1 knock-down cells; assay type: cell-based, Human; conditions: 20 or 40 µM, 5 h, n = 3
Method: Cells were infected with HIV-based third-generation lentiviral particles according to experimental conditions previously described. […]. After virus production and subsequent titration, cells were infected by spinoculation in the presence of polybrene (8 µg/mL) and at 10× multiplicity of infection. On the next day, fresh medium was added, and the cells were allowed to recover for another 48 h. Finally, infected cells were analyzed by flow cytometry and Western blot for evaluation of GFP expression and NPM1 protein levels, respectively.
Figure 4 Lentiviral vector-mediated knock-down of NPM1 in AML cells: (A) Flow cytometry analysis of GFP expression in transduced HL-60 cells at day 7 post-infection. Percentage of GFP+ cells was determined on live-cell population (R1 gate in dot plots); (B) Immunoblots from HL-60 transduced cells showing NPM1 protein knock-down in LV-shRNA infected cells. Densitometry analysis values of NPM1 bands were normalized to β-actin and then to untransduced cells; (C) GFP expression levels and (D) viability of transduced HL-60 cells were followed by flow cytometry during three weeks post-infection; (E) Sensibility of transduced cells toward the cytotoxic effect of CIGB-300 was evaluated by PI staining. Cells were incubated with 20 or 40 µM of CIGB-300 for 5 h, stained with PI solution, and then analyzed by flow cytometry. […]

[2] = tested on: chronic and acute T-cell lymphocytic leukemia (CLL and T-ALL); conditions: read-out: IC50, estimated values; cited from earlier work
Method: In contrast with solid tumor cells, which display a heterogenous sensitivity profile, leukemia cells are more sensitive to CIGB-300 anti-proliferative effects. Indeed, in a panel containing human lung, cervix, prostate, and colon cancer cell lines, the IC50 values for CIGB-300 ranged between 20 and 300 µM [32], while in chronic and acute T-cell lymphocytic leukemia (CLL and T-ALL), the estimated values were all below 40 µM [34, 44].

OCI-AML3 cells = test: Cell cycle analysis by PI staining and flow cytometry; assay type: cell-based, Human; conditions: 40 µM, 24 h
Method: (§1) For cell cycle analysis, AML cells were incubated with 40 µM CIGB-300 during 24 h. Following treatment with the peptide, cells were collected by centrifugation, washed with PBS, and fixed at 4 °C for 30 min with ice-cold 70% ethanol. After fixation, cells were treated with DNase-free RNase A (Sigma, St. Louis, MO, USA) and subsequently stained at 37 °C for 20 min with 50 µg/mL PI solution (Sigma, St. Louis, MO, USA). Stained cells were analyzed in the abovementioned Partec CyFlow Space flow cytometry, and FlowJo Software (v7.6.1) was used for data processing and visualization.

HL-60 cells [3] = test: as above; assay type: cell-based, Human; conditions: 40 µM, 24 h
Method: as §1

[4] = tested on: primary cells from AML patients' bone marrow samples; test: Annexin V/PI staining, flow cytometry; assay type: cell-based, Human; conditions: primary cells from the majority of AML patients' bone marrow samples; 40 µM, 48 h
Description: Bone marrow samples from five AML patients with high leukemia involvement were collected in accordance with the Declaration of Helsinki after informed consent and ethical approval of the Clinical Research Board from the Center for Genetic Engineering and Biotechnology (CIGB, Havana, Cuba) (Table S1). Mononuclear cells from bone marrow samples were isolated using Ficoll-Paque (GE Healthcare, Chicago, IL, USA) density gradient centrifugation. Cells were maintained under standard cell culture conditions.
Viability of AML cells was measured using FITC Annexin V Apoptosis Detection Kit I (BD Biosciences, San Jose, CA, USA). Briefly, cell lines were incubated with 40 µM CIGB-300 for 3 and 5 h, while primary cells were incubated during 48 h. Following incubation, cells were washed twice with cold PBS and resuspended in binding buffer (1×) at a final concentration of 1 × 10^6 cells/mL. Subsequently, 5 µL of FITC Annexin V and PI were added, and cell suspensions were incubated for 15 min at room temperature in the dark. Flow cytometric analysis of stained cells was performed in Partec CyFlow Space instrument (Sysmex Partec GmbH, Gorlitz, Germany), and FlowJo software (v7.6.1) (BD, Ashland, OR, USA) was used for data analysis and visualization.

[5] = tested on: CK2 substrates in HL-60 cells; test: Phosphoproteomic analysis; assay type: cell-based, Human; conditions: 40 µM, 30 min, three replicates
Method: (§2) Sample preparation, phosphopeptide enrichment, and nanoLC-MS/MS for phosphoproteomic analysis of AML cells treated or not with 40 µM CIGB-300 during 30 min were conducted as previously described. Briefly, three replicates from each condition were processed by multienzyme digestion filter-aided sample preparation (MED-FASP) with overnight lys-C and tryptic digestions and the phosphopeptides enriched by TiO2 chromatography. Phosphopeptides were later injected through an EASY-nLC 1200 system into a QExactive HF mass spectrometer (Thermo Scientific, USA) using a home-made column ([…], 20 cm length), and were separated with a gradient from 5% buffer B (0.1% formic acid in acetonitrile) up to 30% in 45 min, 30–60% in 5 min, and 60–95% in 5 min more.
(§3) Data processing and quantification were performed in MaxQuant software (v1.6.2.10) and Perseus computational platform (v1.6.2.2). Phosphopeptides dataset was filtered of reverse and potential contaminants hits, and only phosphosites with localization probability above 0.75 were retained for further analysis. Additionally, only those phosphopeptides represented in each group were considered, and differences in phosphosites occupancy higher than 25% were selected as significant changes. Enzyme–substrate relations were retrieved using post-translational modification resource iPTMnet and web-based tool KEA2 [48, 49]. In addition to well-documented substrates, we searched for candidate CK2 substrates based on the presence of the CK2 consensus sequence, the enzyme–substrate predictions retrieved from NetworKIN database, the dataset of high confidence CK2 substrates reported by Bian et al., and the phosphoproteins that interact with protein kinase CK2 according to the Metascape database.

[6] = tested on: CK2 substrates in OCI-AML3 cells; test: Phosphoproteomic analysis; assay type: cell-based, Human; conditions: 40 µM, 30 min, three replicates
Method: as §2, §3

HL-60 cells [7] = tested on: HL-60 cells; parameters: method as in PMID 24283803, PMID 33562780; conditions: cited from earlier work

T1 sequence (P68400 whole entry): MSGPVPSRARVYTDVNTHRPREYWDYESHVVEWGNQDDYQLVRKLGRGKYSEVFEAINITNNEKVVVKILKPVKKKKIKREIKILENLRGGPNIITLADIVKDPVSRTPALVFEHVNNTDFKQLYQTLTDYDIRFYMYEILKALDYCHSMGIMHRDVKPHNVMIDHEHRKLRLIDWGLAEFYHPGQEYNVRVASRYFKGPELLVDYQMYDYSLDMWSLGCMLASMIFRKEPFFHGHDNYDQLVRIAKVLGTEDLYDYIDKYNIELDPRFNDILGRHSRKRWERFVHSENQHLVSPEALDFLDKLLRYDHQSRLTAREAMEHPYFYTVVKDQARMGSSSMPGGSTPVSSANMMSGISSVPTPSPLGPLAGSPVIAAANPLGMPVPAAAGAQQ

CSCC[C@@H]1NC(=O)[C@H](Cc2c[nH]c3ccccc23)NC(=O)[C@@H](NC(=O)CCNC(=O)[C@H](CCC(N)=O)NC(=O)[C@@H]2CCCN2C(=O)[C@@H]2CCCN2C(=O)[C@H](CCCNC(=N)N)NC(=O)[C@H](CCCNC(=N)N)NC(=O)[C@H](CCCNC(=N)N)NC(=O)[C@H](CCC(N)=O)NC(=O)[C@H](CCCNC(=N)N)NC(=O)[C@H](CCCNC(=N)N)NC(=O)[C@H](CCCCN)NC(=O)[C@H](CCCCN)NC(=O)[C@H](CCCNC(=N)N)NC(=O)CN)CSSC[C@@H](C(=O)O)NC(=O)[C@H]([C@@H](C)O)NC(=O)CNC(=O)[C@H](CC(C)C)NC(=O)[C@H](Cc2c[nH]cn2)NC(=O)[C@H](CCCNC(=N)N)NC(=O)[C@@H]2CCCN2C(=O)[C@H](CO)NC1=O [CIGB-300] (H-GRKKRRQRRRPPQ[βAla]CWMSPRHLGTC-OH; disulfide 15-25; N-terminus and C-terminus assumed)
interaction with CK2α subunit (CK2α catalytic subunit): clear interaction
CK2-mediated phosphorylation at S125 residue of NPM1 (NPM1 S125): inhibition of CK2-mediated phosphorylation
sensibility toward cytotoxic effect, LV-shRNA (NPM1 knock-down roughly 85%) vs LV-pLG [1]: no differential sensibility
IC50 [2]: < 40 µM
effect on cell cycle progression (OCI-AML3 cells): no change in cell cycle distribution
effect on cell cycle progression (HL-60 cells [3]): accumulation of HL-60 cells in S phase
effect on viability (Annexin V-FITC/PI) [4]: promoted apoptosis
Occupancy Treated–Control, ABCF1 S140 (Q8NE71) [5]: −0.2693 ^2
Occupancy Treated–Control, AP3B1 S276 (O00203) [5]: −0.427
Occupancy Treated–Control, BCLAF1 S397 (Q9NYF8) [5]: −0.2902 ^1
Occupancy Treated–Control, C1orf52 S158 (Q8N6N3) [5]: −0.3645
Occupancy Treated–Control, DDX24 S82 (Q9GZR7) [5]: −0.3284
Occupancy Treated–Control, DKC1 S485 (O60832) [5]: −0.3777
Occupancy Treated–Control, DKC1 S494 (O60832) [5]: −0.3312 ^1
Occupancy Treated–Control, EIF3C S39 (Q99613) [5]: −0.2738 ^2
Occupancy Treated–Control, EIF4G1 S1198 (Q04637) [5]: −0.276
Occupancy Treated–Control, FKBP15 S346 (Q5T1M5) [5]: −0.25
Occupancy Treated–Control, HIRIP3 S196 (Q9BW71) [5]: −0.2842
Occupancy Treated–Control, HIRIP3 S199 (Q9BW71) [5]: −0.2649
Occupancy Treated–Control, HMGA1 S44 (P17096) [5]: −0.3177
Occupancy Treated–Control, LEMD3 S144 (Q9Y2U8) [5]: −0.3252
Occupancy Treated–Control, LYN S13 (P07948) [5]: −0.3987
Occupancy Treated–Control, M6PR S267 (P20645) [5]: −0.26
Occupancy Treated–Control, MCM2 S41 (P49736) [5]: −0.421 ^2
Occupancy Treated–Control, NAP1L4 S125 (Q99733) [5]: −0.3398
Occupancy Treated–Control, PABPC1 T319 (P11940) [5]: −0.2931
Occupancy Treated–Control, PAK2 T169 (Q13177) [5]: −0.2963
Occupancy Treated–Control, PNN S381 (Q9H307) [5]: −0.2998
Occupancy Treated–Control, SEPTIN2 S218 (Q15019) [5]: −0.2677 ^1, 2
Occupancy Treated–Control, SRSF11 S464 (Q05519) [5]: −0.3301
Occupancy Treated–Control, ST13 S75 (P50502) [5]: −0.2852
Occupancy Treated–Control, STMN1 S63 (P16949) [5]: −0.3357 ^2
Occupancy Treated–Control, THRAP3 S211 (Q9Y2W1) [5]: −0.2914
Occupancy Treated–Control, TMPO S66 (P42166) [5]: −0.4836
Occupancy Treated–Control, TMPO S67 (P42166) [5]: −0.4836
Occupancy Treated–Control, TOP2A S1106 (P11388) [5]: −0.2854
Occupancy Treated–Control, XRCC6 S520 (P12956) [5]: −0.3763
Occupancy Treated–Control, BCLAF1 S397 (Q9NYF8) [6]: −0.3056 ^1
Occupancy Treated–Control, BRCA1 S1164 (P38398) [6]: −0.3932
Occupancy Treated–Control, CEP170 S1112 (Q5SW79) [6]: −0.4366
Occupancy Treated–Control, DKC1 S494 (O60832) [6]: −0.2948 ^1
Occupancy Treated–Control, EIF5B S214 (O60841) [6]: −0.2868
Occupancy Treated–Control, HNRNPC S220 (P07910) [6]: −0.4698
Occupancy Treated–Control, HNRNPC S225 (P07910) [6]: −0.4597
Occupancy Treated–Control, MCM2 S13 (P49736) [6]: −0.4061 ^2
Occupancy Treated–Control, MCM2 S139 (P49736) [6]: −0.3422 ^2
Occupancy Treated–Control, NAP1L4 S7 (Q99733) [6]: −0.2719
Occupancy Treated–Control, NOP56 S520 (O00567) [6]: −0.3705
Occupancy Treated–Control, SEPTIN2 S218 (Q15019) [6]: −0.4261 ^1, 2
Occupancy Treated–Control, SRSF11 S433 (Q05519) [6]: −0.3794
Occupancy Treated–Control, STT3B S499 (Q8TCJ2) [6]: −0.3445
Occupancy Treated–Control, TOP2A S1247 (P11388) [6]: −0.3351
Occupancy Treated–Control, TOP2B S1550 (Q02880) [6]: −0.2936

O=C(O)c1ccc2c(c1)nc(Nc1cccc(Cl)c1)c1ccncc12 [CX-4945]
response toward cytotoxic effect (HL-60 cells [7]): refractoriness
